Experimental data reported in US20210170033A1, “NOVEL CONJUGATES OF A PHARMACEUTICAL AGENT AND A MOIETY CAPABLE OF BINDING TO A GLUCOSE SENSING PROTEIN” (SANOFI, priority 2017, published 2021).
Where two headings read alike, the source gives them in different places.

Tests used:
A2780 cells = experiment: Deoxy-glucose uptake assay in A2780 cells (14C 2-deoxy-D-glucose transport); format: cell-based; conditions: Homo sapiens, 20 min; inhibition of 14C 2-deoxy-D-glucose transport into A2780 cells; 20 min compound incubation; read-out: IC50
In short: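 Radiolabelled 2-deoxy-D-glucose transport over 20 min was scintillation-counted in A2780 cells, grown 48 h, after 20 min compound exposure in KRB. Untreated cells gave the 100% reference, with Cytochalasin B defining background. IC50 values were regressed from triplicate means across 7 or 14 concentrations.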

[1] = tested on: A2780 Human Carcinoma Cells; experiment: Glucose displacement assay (ATP measurement, CellTiter-Glo); format: cell-based; conditions: ATP measurement in A2780 cells, 0.5 μM rotenone
Protocol: 2. Glucose Displacement Assay (ATP Measurement)
30,000 A2780 Human Carcinoma Cells are seeded per well in a Greiner 96-well plate. Cells are expanded and cultured in RPMI 1640 medium+GlutaMAX® with 10% FCS and 11 mM glucose, at 37° C. with 5% CO2. After 44 h, culture media is changed and washed once with PBS to starvation media consisting of RPMI 1640 medium with 1% FCS without glucose for 2 hours. Cells are then washed with KRB buffer, followed by incubation for 20 min at 37° C. of the treatment mix consisting of 60 μL KRB buffer/well and 10 μL of compound or DMSO 10×. 10 μl of rotenone is added to the mix to a final concentration of 0.5 μM. Cell plates are left for 2 min at room temperature. 20 μL of different glucose concentrations are added to the mix—typically 0.1 to 10 mM range—.
Cells are incubated for another 15 min at 37° C., before measuring ATP with the CellTiter-Glo® Assay, under manufacturer's guidance, but without the equilibration step at room temperature for 30 min. In brief, 100 μl of Cell-Titer-Glo® Reagent is added to the wells containing already 100 μl of the previous reaction mix. Plates are mixed for 2 min at 800 rpm, followed by incubation at room temperature for 10 min to stabilize the luminescent signal. Luminescence is then recorded with the Tekan Ultra Evolution reader.

[2] = 1 mM glucose, read-out: IC50 [μM] at 1 mM glucose
[3] = 10 mM glucose, read-out: IC50 [μM] at 10 mM glucose

| IC50 (A2780 cells) | IC50 [1, 2] | IC50 [1, 3] | Compound |
| --- | --- | --- | --- |
| 40 nM | 0.26 µM | 1.05 µM | COC(=O)/C=C/c1ccc(COc2cc(OC)c(C(=O)O[C@H]3[C@@H](OC)O[C@H](CO)[C@@H](O)[C@@H]3O)cc2Cl)cc1 [Example 352] |
| 2200 nM | 16.7 µM | 104 µM | CO[C@H]1O[C@H](CO)[C@@H](O)[C@H](O)[C@H]1OC(=O)c1cc(Cl)c(OCc2nc3ccccc3n2Cc2ccccc2Cl)c(Cl)c1 [Example 116] |
| 1600 nM | 1.41 µM | 7.19 µM | COc1cc(OCc2cccc(NC(=O)CCC(=O)OC(C)(C)C)c2)c(Cl)cc1C(=O)O[C@H]1[C@@H](OC)O[C@H](CO)[C@@H](O)[C@@H]1O [Example 375] |
| 4400 nM | 3.88 µM | 12.3 µM | COc1cc(OCc2cccc(NC(=O)CCCC(=O)OC(C)(C)C)c2)c(Cl)cc1C(=O)O[C@@H]1[C@@H](O)[C@@H](OC)O[C@H](CO)[C@H]1O [Example 364] |
| 28700 nM | 12.7 µM | 33.9 µM | COc1cc(C(=O)OC[C@H]2O[C@H](OC)[C@H](O)[C@@H](O)[C@@H]2O)cc(Cl)c1OCc1cccc(NC(=O)OC(C)(C)C)c1 [Example 20] |
| 34200 nM | 2.18 µM | > 100 µM | COC(=O)[C@H](CCC(=O)NCCCCCCn1c(COc2c(Cl)cc(C(=O)N[C@H]3[C@@H](OC)O[C@H](CO)[C@@H](O)[C@@H]3O)c(C)c2Cl)nc2ccccc21)NC(=O)OC(C)(C)C [Example 342] |
| 600 nM | 2.95 µM | 7.81 µM | COc1cc(OCc2cccc(CNC(=O)CCCCCCC(=O)OC(C)(C)C)c2)c(Cl)cc1C(=O)O[C@H]1[C@@H](OC)O[C@H](CO)[C@@H](O)[C@@H]1O [Example 401] |
| 35800 nM | 8.85 µM | > 33 µM | COC(=O)[C@@H](N)CCC(=O)NCc1cccc(COc2c(Cl)cc(C(=O)O[C@H]3[C@@H](OC)O[C@H](CO)[C@@H](O)[C@@H]3O)c(C)c2Cl)c1 [Example 308] |
| 7400 nM | 3 µM | 8.03 µM | CO[C@H]1O[C@H](CO)[C@@H](O)[C@H](O)[C@H]1OC(=O)c1cc(Cl)c(OCc2ccc(OCC(=O)OC(C)(C)C)cc2)c(Cl)c1C [Example 319] |
| 17600 nM | 19.5 µM | > 33 µM | COC(=O)[C@H](CCCCNC(=O)CCCCCCC(=O)NCc1cccc(COc2cc(OC)c(C(=O)N[C@H]3[C@@H](OC)O[C@H](CO)[C@@H](O)[C@@H]3O)cc2Cl)c1)NC(=O)OC(C)(C)C [Example 437] |
| 400 nM | 0.12 µM | 0.7 µM | CO[C@H]1O[C@H](CO)[C@@H](O)[C@H](O)[C@H]1OC(=O)c1cc(Cl)c(OCc2nc3ccccc3n2CCCc2cn(CCOCCOCC(=O)OC(C)(C)C)nn2)c(Cl)c1C [Example 311] |
| 20000 nM | 1.42 µM | 7.06 µM | COC(=O)[C@H](CCCCNC(=O)CCCCCn1c(COc2c(Cl)cc(C(=O)N[C@H]3[C@@H](OC)O[C@H](CO)[C@@H](O)[C@@H]3O)c(C)c2Cl)nc2ccccc21)NC(=O)OC(C)(C)C [Example 322] |
| 5100 nM | 10.3 µM | 30.9 µM | COC(=O)[C@H](CCCCNC(=O)CCCCCCC(=O)NCc1cccc(COc2cc(OC)c(C(=O)O[C@H]3[C@@H](OC)O[C@H](CO)[C@@H](O)[C@@H]3O)cc2Cl)c1)NC(=O)OC(C)(C)C [Example 413] |
| 300 nM | 3.24 µM | 7.35 µM | COc1cc(OCc2cccc(NC(=O)CCCCCCC(=O)OC(C)(C)C)c2)c(Cl)cc1C(=O)O[C@H]1[C@@H](OC)O[C@H](CO)[C@@H](O)[C@@H]1O [Example 402] |
| 6000 nM | 2 µM | 8.9 µM | CO[C@H]1O[C@H](CO)[C@@H](O)[C@H](O)[C@H]1NC(=O)c1cc(Cl)c(OCc2cccc(NC(=O)OC(C)(C)C)c2)c(Cl)c1C [Example 443] |
| 800 nM | 1.02 µM | 3.73 µM | COc1cc(OCc2cccc(NC(=O)CCCC(=O)OC(C)(C)C)c2)c(Cl)cc1C(=O)O[C@H]1[C@@H](OC)O[C@H](CO)[C@@H](O)[C@@H]1O [Example 376] |
| 3300 nM | 2.5 µM | 11.5 µM | CO[C@H]1O[C@H](CO)[C@@H](O)[C@H](O)[C@H]1NC(=O)c1cc(Cl)c(OCc2cccc(CNC(=O)OC(C)(C)C)c2)c(Cl)c1C [Example 439] |
| 1000 nM | 1.11 µM | 8.59 µM | CO[C@H]1O[C@H](CO)[C@@H](O)[C@H](O)[C@H]1OC(=O)c1cc(Cl)c(OCc2cccc(CNC(=O)CCC(=O)OC(C)(C)C)c2)c(Cl)c1C [Example 344] |

| IC50 (A2780 cells) | IC50 [1, 2] | IC50 [1, 3] | Compound |
| --- | --- | --- | --- |
| 800 nM | 1.93 µM | 8.11 µM | COc1cc(OCc2cccc(CNC(=O)OC(C)(C)C)c2)c(Cl)cc1C(=O)O[C@H]1[C@@H](OC)O[C@H](CO)[C@@H](O)[C@@H]1O [Example 361] |
| 2800 nM | 5.56 µM | 19.5 µM | COc1cc(OCc2cccc(CNC(=O)CCCCCCC(=O)OC(C)(C)C)c2)c(Cl)cc1C(=O)N[C@H]1[C@@H](OC)O[C@H](CO)[C@@H](O)[C@@H]1O [Example 426] |
| 4500 nM | 0.393 µM | 2.4 µM | C#CCCCn1c(COc2c(Cl)cc(C(=O)N[C@H]3[C@@H](OC)O[C@H](CO)[C@@H](O)[C@@H]3O)c(C)c2Cl)nc2ccccc21 [Example 201] |
| 1100 nM | 1.67 µM | 21.1 µM | COc1cc(OCc2ccccc2)c(Cl)cc1C(=O)O[C@H]1[C@@H](OC)O[C@H](CO)[C@@H](O)[C@@H]1O [Example 233] |
| 9400 nM | 4.99 µM | > 33 µM | C#CCCCn1c(COc2cc(C(=O)O[C@H]3[C@@H](OC)O[C@H](CO)[C@@H](O)[C@@H]3O)cc3c2cnn3C)nc2ccccc21 [Example 327] |
| 2800 nM | 0.86 µM | 5.28 µM | CO[C@H]1O[C@H](CO)[C@@H](O)[C@H](O)[C@H]1OC(=O)c1cc(Cl)c(OCc2cccc(NC(=O)CCC(=O)OC(C)(C)C)c2)c(Cl)c1C [Example 347] |
| 300 nM | 1.2 µM | 7.19 µM | CO[C@H]1O[C@H](CO)[C@@H](O)[C@H](O)[C@H]1OC(=O)c1cc(Cl)c(OCc2noc3ccc(C)cc23)c(Cl)c1C [Example 325] |
| 200 nM | 0.56 µM | 1.2 µM | C#CCCCCCCn1c(COc2c(Cl)cc(C(=O)O[C@H]3[C@@H](OC)O[C@H](CO)[C@@H](O)[C@@H]3O)c(C)c2Cl)nc2ccccc21 [Example 321] |
| 1600 nM | 0.72 µM | 2.61 µM | CO[C@H]1O[C@H](CO)[C@@H](O)[C@H](O)[C@H]1NC(=O)c1cc(Cl)c(OCc2nc3ccccc3n2CCCCCCNC(=O)[C@H](CC(C)C)N(C)C(=O)OC(C)(C)C)c(Cl)c1C [Example 341] |
| 2400 nM | 2.89 µM | 15 µM | COc1cc(OCc2cccc(CNC(=O)CCC(=O)OC(C)(C)C)c2)c(Cl)cc1C(=O)O[C@H]1[C@@H](OC)O[C@H](CO)[C@@H](O)[C@@H]1O [Example 372] |
| 1100 nM | 0.36 µM | 1.79 µM | C#CCCC(=O)Nc1cc(COc2c(Cl)cc(C(=O)O[C@H]3[C@@H](OC)O[C@H](CO)[C@@H](O)[C@@H]3O)c(C)c2Cl)ccc1OC [Example 331] |
| 100 nM | 0.12 µM | 0.29 µM | C#CCCCn1c(COc2c(Cl)cc(C(=O)O[C@H]3[C@@H](OC)O[C@H](CO)[C@@H](O)[C@@H]3O)c(C)c2Cl)nc2ccc(OC)cc21 [Example 291] |
| 1700 nM | 2.4 µM | 3.3 µM | COc1cc(OCc2nc3ccccc3n2CCCCCCCCCCCC(=O)O)c(Cl)cc1C(=O)N[C@H]1[C@@H](OC)O[C@H](CO)[C@@H](O)[C@@H]1O [Example 469] |
| 3300 nM | 9.79 µM | 25.4 µM | COc1cc(OCc2cccc(CNC(=O)CCC(=O)OC(C)(C)C)c2)c(Cl)cc1C(=O)N[C@H]1[C@@H](OC)O[C@H](CO)[C@@H](O)[C@@H]1O [Example 424] |
| 300 nM | 0.17 µM | 0.71 µM | CCOC(=O)CCCCCn1cc(CCCn2c(COc3c(Cl)cc(C(=O)O[C@H]4[C@@H](OC)O[C@H](CO)[C@@H](O)[C@@H]4O)c(C)c3Cl)nc3ccccc32)nn1 [Example 309] |
| 100 nM | 0.16 µM | 1.28 µM | C#CCCCn1c(COc2cc(OC)c(C(=O)O[C@H]3[C@@H](OC)O[C@H](CO)[C@@H](O)[C@@H]3O)cc2Cl)nc2ccccc21 [Example 294] |
| 1700 nM | 3.9 µM | 7.8 µM | COc1cc(OCc2cccc(NC(=O)CCCCCCC(=O)OC(C)(C)C)c2)c(Cl)cc1C(=O)N[C@H]1[C@@H](OC)O[C@H](CO)[C@@H](O)[C@@H]1O [Example 430] |
| 10 nM | 0.2 µM | 0.94 µM | C#CCCCn1c(COc2c(Cl)cc(C(=O)O[C@H]3[C@@H](OC)O[C@H](CO)[C@@H](O)[C@@H]3O)c(C)c2Cl)nc2ccc(C)cc21 [Example 329] |
